Measured values: ChEMBL document CHEMBL3885861, “Open TG-GATES”

Species on record: Rattus norvegicus
Experiment: Open TG-GATES - Regimen: Single
Type: toxicity, organism-based, Sprague-Dawley
Design: regimen Single, gender Male, age 6 weeks
Settings: in vivo, po, 300 mg/kg, route gavage, dose level Middle; for APTT / Bas / Eos / Fbg / Hb / Ht / Lym / MCH / MCHC / MCV / Mono / Neu / PT / Plat / RBC / Ret / WBC: tissue Blood; for KIDNEY_L / KIDNEY_R / KIDNEY_TOTAL: tissue Kidney; for LIVER: tissue Liver; for A/G / ALP / ALT / AST / BUN / CRE / Ca / Cl / DBIL / GLC / IP / K / LDH / Na / PL / RALB / TBIL / TC / TG / TP / gamma-GTP: tissue Plasma

`O=C(N[C@H](CO)[C@H](O)c1ccc([N+](=O)[O-])cc1)C(Cl)Cl` [CHLORAMPHENICOL] gave a TERMINAL_BW (3 h) of 221.3 g, an APTT (3 h) of 16.6 s and a Bas (3 h) of 0%. The Eos (3 h) was 1%, the Fbg (3 h) was 268.4 mg/dL and the Hb (3 h) was 13.2 g/dL. It also gave a Ht (3 h) of 39%, a Lym (3 h) of 78.2% and an MCH (3 h) of 21.8 pg. For the same compound, the MCHC (3 h) was 33.9%, the MCV (3 h) was 64.1 fL and the Mono (3 h) was 3.2%. For the same compound, the Neu (3 h) was 17.4%, the PT (3 h) was 14.5 s and the Plat (3 h) was 114 x10_4/uL. The RBC (3 h) was 608.8 x10_4/ul, the Ret (3 h) was 8.3% and the WBC (3 h) was 71.3 x10_2/uL. It also gave a KIDNEY_L (3 h) of 0.9 g, a KIDNEY_R (3 h) of 0.9 g and a KIDNEY_TOTAL (3 h) of 1.9 g. The LIVER (3 h) was 9.8 g, the A/G (3 h) was 0.9 and the ALP (3 h) was 1546.4 IU/L. For the same compound, the ALT (3 h) was 41 IU/L, the AST (3 h) was 76.6 IU/L and the BUN (3 h) was 11 mg/dL. For the same compound, the CRE (3 h) was 0.2 mg/dL, the Ca (3 h) was 11.5 mg/dL and the Cl (3 h) was 105.8 meq/L. It also gave a DBIL (3 h) of 0.018 mg/dL, a GLC (3 h) of 181.8 mg/dL and an IP (3 h) of 9.1 mg/dL. For the same compound, the K (3 h) was 4.1 meq/L, the LDH (3 h) was 66.2 IU/L and the Na (3 h) was 139.8 meq/L. It also gave a PL (3 h) of 144.2 mg/dL, an RALB (3 h) of 2.5 g/dL and a TBIL (3 h) of 0.064 mg/dL. It also gave a TC (3 h) of 76.6 mg/dL, a TG (3 h) of 66 mg/dL and a TP (3 h) of 5.5 g/dL. The gamma-GTP (3 h) was 1.2 IU/L, the TERMINAL_BW (6 h) was 221.3 g and the APTT (6 h) was 17.6 s. It also gave a Bas (6 h) of 0%, an Eos (6 h) of 0.8% and a Fbg (6 h) of 284 mg/dL. The Hb (6 h) was 13.4 g/dL, the Ht (6 h) was 42.8% and the Lym (6 h) was 79.8%. The MCH (6 h) was 21.7 pg, the MCHC (6 h) was 31.3% and the MCV (6 h) was 69.4 fL. It also gave a Mono (6 h) of 2.6%, a Neu (6 h) of 16.8% and a PT (6 h) of 15 s. The Plat (6 h) was 107.3 x10_4/uL, the RBC (6 h) was 618.2 x10_4/ul and the Ret (6 h) was 8.2%. For the same compound, the WBC (6 h) was 68.7 x10_2/uL, the KIDNEY_L (6 h) was 0.9 g and the KIDNEY_R (6 h) was 1 g. The KIDNEY_TOTAL (6 h) was 1.9 g, the LIVER (6 h) was 8.8 g and the A/G (6 h) was 0.9. The ALP (6 h) was 1672 IU/L, the ALT (6 h) was 40.8 IU/L and the AST (6 h) was 72.2 IU/L. For the same compound, the BUN (6 h) was 9.4 mg/dL, the CRE (6 h) was 0.2 mg/dL and the Ca (6 h) was 11.4 mg/dL. For the same compound, the Cl (6 h) was 106 meq/L, the DBIL (6 h) was 0.014 mg/dL and the GLC (6 h) was 184.4 mg/dL. For the same compound, the IP (6 h) was 9.8 mg/dL, the K (6 h) was 4.4 meq/L and the LDH (6 h) was 79 IU/L. For the same compound, the Na (6 h) was 141 meq/L, the PL (6 h) was 138.2 mg/dL and the RALB (6 h) was 2.5 g/dL. It also gave a TBIL (6 h) of 0.07 mg/dL, a TC (6 h) of 76.6 mg/dL and a TG (6 h) of 60 mg/dL. It also gave a TP (6 h) of 5.4 g/dL, a gamma-GTP (6 h) of 1 IU/L and a TERMINAL_BW (9 h) of 221.3 g. It also gave an APTT (9 h) of 16.4 s, a Bas (9 h) of 0% and an Eos (9 h) of 0.8%. It also gave a Fbg (9 h) of 273.4 mg/dL, a Hb (9 h) of 13.2 g/dL and a Ht (9 h) of 42.2%. The Lym (9 h) was 81.6%, the MCH (9 h) was 20.5 pg and the MCHC (9 h) was 31.4%. It also gave an MCV (9 h) of 65.4 fL, a Mono (9 h) of 1.8% and a Neu (9 h) of 15%. The PT (9 h) was 15.2 s, the Plat (9 h) was 109.8 x10_4/uL and the RBC (9 h) was 646.2 x10_4/ul. For the same compound, the Ret (9 h) was 7.4%, the WBC (9 h) was 55.9 x10_2/uL and the KIDNEY_L (9 h) was 0.9 g. For the same compound, the KIDNEY_R (9 h) was 0.9 g, the KIDNEY_TOTAL (9 h) was 1.8 g and the LIVER (9 h) was 8.3 g. The A/G (9 h) was 0.9, the ALP (9 h) was 1711.2 IU/L and the ALT (9 h) was 34.6 IU/L. For the same compound, the AST (9 h) was 70.2 IU/L, the BUN (9 h) was 10.2 mg/dL and the CRE (9 h) was 0.2 mg/dL. The Ca (9 h) was 11.1 mg/dL, the Cl (9 h) was 105 meq/L and the DBIL (9 h) was 0.014 mg/dL. For the same compound, the GLC (9 h) was 180.4 mg/dL, the IP (9 h) was 10.2 mg/dL and the K (9 h) was 4.5 meq/L. For the same compound, the LDH (9 h) was 59.4 IU/L, the Na (9 h) was 139.8 meq/L and the PL (9 h) was 122 mg/dL. It also gave an RALB (9 h) of 2.5 g/dL, a TBIL (9 h) of 0.068 mg/dL and a TC (9 h) of 67.8 mg/dL. For the same compound, the TG (9 h) was 36 mg/dL, the TP (9 h) was 5.3 g/dL and the gamma-GTP (9 h) was 1.2 IU/L. It also gave a TERMINAL_BW (24 h) of 227.9 g, an APTT (24 h) of 18.8 s and a Bas (24 h) of 0%. For the same compound, the Eos (24 h) was 0.8%, the Fbg (24 h) was 258.8 mg/dL and the Hb (24 h) was 13.7 g/dL. The Ht (24 h) was 42.4%, the Lym (24 h) was 84.4% and the MCH (24 h) was 21.7 pg. The MCHC (24 h) was 32.1%, the MCV (24 h) was 67.6 fL and the Mono (24 h) was 2.8%. For the same compound, the Neu (24 h) was 11.6%, the PT (24 h) was 14.8 s and the Plat (24 h) was 118.7 x10_4/uL. The RBC (24 h) was 628.2 x10_4/ul, the Ret (24 h) was 7.8% and the WBC (24 h) was 66 x10_2/uL. For the same compound, the KIDNEY_L (24 h) was 1 g, the KIDNEY_R (24 h) was 1 g and the KIDNEY_TOTAL (24 h) was 2 g. The LIVER (24 h) was 9.4 g, the A/G (24 h) was 0.9 and the ALP (24 h) was 1891.8 IU/L. For the same compound, the ALT (24 h) was 48.2 IU/L, the AST (24 h) was 76.6 IU/L and the BUN (24 h) was 14.8 mg/dL. It also gave a CRE (24 h) of 0.2 mg/dL, a Ca (24 h) of 11.5 mg/dL and a Cl (24 h) of 105.4 meq/L. For the same compound, the DBIL (24 h) was 0.02 mg/dL, the GLC (24 h) was 190.4 mg/dL and the IP (24 h) was 8.8 mg/dL. It also gave a K (24 h) of 4.5 meq/L, an LDH (24 h) of 65 IU/L and a Na (24 h) of 141.6 meq/L. The PL (24 h) was 157.6 mg/dL, the RALB (24 h) was 2.5 g/dL and the TBIL (24 h) was 0.062 mg/dL. For the same compound, the TC (24 h) was 86 mg/dL, the TG (24 h) was 81 mg/dL and the TP (24 h) was 5.5 g/dL. It also gave a gamma-GTP (24 h) of 1 IU/L.
